Source: US5112808A, “Alkylated hormone-releasing peptides and method of treatig mammals therewith” (American Cyanamid Company, priority 1988, dated 1992)
Where no end group is shown, it is not given here.

Legend:
plasma growth hormone = experiment: Evaluation of peptides in vivo in sheep: plasma GH levels in lambs injected intravenously at 100 ng/kg; details: for Plasma GH Peak / Plasma GH Post-inj Mean: 100 ng/kg IV; for Plasma GH Peak: control 12.2; for Plasma GH Post-inj Mean: two hours after treatment, means of 8 samples/animal from 8 animals, control 8.7; for Plasma GH Pre-inj Mean: before IV injection of 100 ng/kg, means of 5 samples/animal from 8 animals, control 8.4
Experimental: The purpose of this experiment is to compare the GH releasing activities of several GRF analogs selected for expected high potency and the lack of either a terminal amide or a D-amino acid. The analogs to be compared in wether lambs at 100 ng/kg (IV) are tri-isopropyl-GRF(1-29)-NH2, tri-isopropyl-GRF(1-29)-OH, tri-isopropyl-GRF(1-40)OH, D-ala^2, arg^12,21 -GRF (1-29)-OH, D-ala^2, arg^12,21 -GRF(1-29)-NH2, GRF(1-40)-OH and GRF(1-29)-NH2
A balanced 8×8 Latin square design will be used to test the following 8 treatments:
Sheep are maintained in individual metabolism cages at all times. Each sheep has previously received an indwelling jugular cannula which is flushed daily with heparinized (400-800 IU/ml) sterile saline to help maintain […].
All compounds are solubilized at 5 ug/ml in sterile saline containing 1% Tween 80 and injected intravenously at 100 ng/kg. Control lambs receive equal volumes of the vehicle only. The drugs are prepared each day just prior to injection to minimize sticking to the vials.
Blood is collected in heparinized tubes at 15 minute intervals for one hour prior to and for two hours after the treatments are administered. Plasma samples are removed by centrifugation and frozen.
Blood samples are taken from each animal at 15 minute intervals for 3 hours each day during the 8 day trial period. The samples are analyzed for plasma growth hormone (ng/ml). Data obtained are reported below as near values obtained for each treatment.

growth hormone release = experiment: Peptide effects on growth hormone release in the pentobarbital-anesthetized rat (plasma GH by RIA); type: in vivo
Experimental: In this evaluation, the procedures described by W. A. Murphy et al., Endocrinology 109: 491-495 (1980), were employed.
In growth hormone (GH) experiments, male rats (Charles Rivers) were anesthetized with NEMBUTAL® (6 mg per 100 g body weight) which also served to maintain stimulated plasma GH levels. Exactly 30 minutes after the rats were anesthetized, 0.5 mL of saline or the test peptide in saline was administered as a SC bolus. A 1 mL blood sample was drawn from the jugular vein 15 minutes after the injection of the peptide in saline or at the indicated times in the time course assay (p26). GH levels were determined using NIADDKD rat GH RIA components.

In the case of “[N ^α -Isopropyl-Tyr^1, N ^ε -isopropyl-Lys^12,21 ]GRF(1-40)OH [tri-isopropyl-GRF(1-40)-OH]”, the “Plasma GH Peak” value (plasma growth hormone) is reported as 108.6 ng/mL, the “Plasma GH Post-inj Mean” value (plasma growth hormone) is reported as 34.0 ng/mL and the “Plasma GH Pre-inj Mean” value (plasma growth hormone) is reported as 9.5 ng/mL.
For CC[C@H](C)[C@H](NC(=O)[C@H](C)NC(=O)[C@H](CC(=O)O)NC(=O)[C@H](C)NC(=O)[C@H](Cc1ccc(O)cc1)NC)C(=O)N[C@@H](Cc1ccccc1)C(=O)N[C@H](C(=O)N[C@@H](CC(N)=O)C(=O)N[C@@H](CO)C(=O)N[C@@H](Cc1ccc(O)cc1)C(=O)N[C@@H](CCCNC(=N)N)C(=O)N[C@@H](CCCCN)C(=O)N[C@H](C(=O)N[C@@H](CC(C)C)C(=O)NCC(=O)N[C@@H](CCC(N)=O)C(=O)N[C@@H](CC(C)C)C(=O)N[C@@H](CO)C(=O)N[C@@H](C)C(=O)N[C@@H](CCCNC(=N)N)C(=O)N[C@@H](CCCCN)C(=O)N[C@@H](CC(C)C)C(=O)N[C@@H](CC(C)C)C(=O)N[C@@H](CCC(N)=O)C(=O)N[C@@H](CC(=O)O)C(=O)N[C@H](C(=O)N[C@@H](CCSC)C(=O)N[C@@H](CO)C(=O)N[C@@H](CCCNC(=N)N)C(N)=O)[C@@H](C)CC)C(C)C)[C@@H](C)O [N^α MeTry^1, [N α-MeTyr^1]hpGRF(1-29)-NH2, reference compound], the “PLASMA GH” value (growth hormone release; dose 30 ug/100 g BW SC, blood 15 min after injection, saline control 243 ± 25) was 1843 ± 196 ng/mL, the “PLASMA GH” value (growth hormone release; dose 75 ug/100 g BW SC, blood 15 min after injection, saline control 243 ± 25) was 2613 ± 418 ng/mL and the POTENCY (growth hormone release; relative to GRF(1-29)NH2 (=1) as standard, by 4point assay (95% CI limits in parentheses)) was 0.42.
With “[N^α -Isopropyl-Tyr^1 ]GRF(1-29)NH2 [N^α iPrTyr^1]” the “PLASMA GH” value (growth hormone release; dose 0.2 ug/100 g BW SC, 15 min, saline control 325 ± 52) was 1334 ± 394 ng/mL, the “PLASMA GH” value (growth hormone release; dose 2 ug/100 g BW SC, 15 min, saline control 325 ± 52) was 3250 ± 362 ng/mL and the “PLASMA GH” value (growth hormone release; dose 20 ug/100 g BW SC, 15 min, saline control 325 ± 52) was 3290 ± 241 ng/mL. The POTENCY (growth hormone release; relative to GRF(1-29)NH2 (=1), estimated by single dose comparisons to pooled standard responses) was ~ 60.
For “GRF(1-40)-OH (YADAIFTNSYRKVLGQLSARKLLQDIMSRQQGESNQERGA-OH; UniProt P01286 32-71, looked up, fragment) [unalkylated human GRF(1-40) free acid, comparator in the sheep test, reference compound]”, the “Plasma GH Peak” value (plasma growth hormone) was 92.3 ng/mL, the “Plasma GH Post-inj Mean” value (plasma growth hormone) was 25.5 ng/mL and the “Plasma GH Pre-inj Mean” value (plasma growth hormone) was 9.4 ng/mL.
